Test system: wacher normotoner Hunde
Experiment: Diastolic blood pressure in conscious normotensive dogs
Assay type: in vivo
Details: Trandolapril alone, 3 mg/kg/Tag

Compound: CCOC(=O)[C@H](CCc1ccccc1)N[C@@H](C)C(=O)N1[C@H](C(=O)O)C[C@H]2CCCC[C@@H]21 [Trandolapril, N-(1s-Carbethoxy-3-phenylpropyl)-S-alanyl-2S,3aR,7aS-octa-hydroindol-2-carbonsäure]
- Senkung des diastolischen Blutdruckes: weder Verapamil-SR allein (10 mg/kg/Tag) noch Trandolapril allein (3 mg/kg/Tag) den diastolischen Blutdruck wacher normotoner Hunde zu senken vermögen

— patent EP0508511B1 (KNOLL AG, priority 1991, dated 1992)
